Reference: patent publication US7371766B2, “Curcumin analogs with anti-tumor and anti-angiogenic properties” (Emory University, priority 1999, dated 2008)
Like-named read-outs stand apart in the source and are kept apart here.

Legend:
[1] = system: Tissue Factor (TF) production by human prostate cancer cell line PC-3; assay: TF ELISA, PC-3; format: cell-based; details: 20 μM; for TF (% of DMSO): DMSO = 100%; for TF: mean of triplicate and S.D., DMSO 203 ± 6
Method: (§1) Cells were treated with 1% Triton X-100 in PBS and left overnight at 4° C. overnight to solubilize TF. […] IMUBIND Tissue Factor ELISA Kit (American Diagnostica Inc, Greenwich, Conn.) was used to determine TF concentration in each sample. The ELISA was carried out according to manufacturer's procedure.

[2] = system: RPMI 7951; assay: Emory Laboratory Cell Screen, Neutral Red, RPMI 7951; format: cell-based, human; details: RPMI 7951, Melanoma, 72 hours, read-out: Median Growth Inhibitory Concentration (GI50)
Method: (§2) Human tumor and endothelial cell lines were treated for 72 hours with compounds at a minimum of four concentrations between 0.1 μM-40 μM. Neutral Red assay was used to calculate cell viability.

[3] = system: RPMI-7951 human melanoma; assay: Neutral Red Assay, cell viability, RPMI-7951; details: for Neutral Red Uptake, % / Cell Viability: RPMI-7951; for Neutral Red Uptake, %: 72 hours; for Cell Viability: DMSO = 100; for viability at 5 µM / viability at 20 µM: Homo sapiens
[4] = system: Tissue Factor (TF) production by human melanoma cell line RPMI-7951; assay: TF ELISA, RPMI-7951; format: cell-based
Method: (§3) IMUBIND Tissue Factor ELISA Kit (American Diagnostica Inc, Greenwich, Conn.) was used to determine TF concentration in each sample. The ELISA was carried out according to manufacturer's procedure.

[5] = system: Human tumor and endothelial cell lines; assay: Emory Laboratory Cell Screen, mean over cell lines; format: cell-based; details: Mean over the Emory cell lines, 72 hours, read-out: Median Growth Inhibitory Concentration (GI50), Mean
Method: as §2

[6] = system: Vascular Endothelial Growth Factor (VEGF) production by human prostate cancer cell line DU-145; assay: VEGF ELISA, DU-145; format: cell-based; details: for VEGF (% of DMSO): DMSO = 100%
[7] = system: Vascular Endothelial Growth Factor (VEGF) production by human melanoma cell line RPMI-7951; assay: VEGF ELISA, RPMI-7951; details: for VEGF / VEGF ELISA: RPMI-7951; for VEGF ELISA: DMSO control 3713; for activity at 5 µM / activity at 20 µM: Homo sapiens, RPMI-7951, 72 h, read-out: VEGF
Method: RPMI-795 1, MDA-MB-231 and MDA-MB-435 cell lines were cultured in MEM-alpha medium (GIBCO-BRL, Long Island, N.Y.) containing 10% fetal bovine serum (RPMI-7951, MDA-MB-231) or 5% FBS (MDA-MB-435) at 37° C. and under 5% CO2/95% air. […] The cells were cultured in 48 well plates in all of the experiments described.
A VEGF enzyme-linked immunosorbent assay (ELISA) was utilized to determine the effect of the compounds of the present invention on VEGF production of a variety of human cancer cell lines. For the VEGF assay, cells were plated at a concentration of 80,000 cells/well and cultured overnight. Compounds or vehicle (DMSO 0.1%) were then added and the plates were incubated for 72 hours. Supernatant was then collected from each well and frozen in a −80° C. freezer until needed. Cell viability was determined by Neutral Red Assay. VEGF ELISA Kit (R & D, Minneapolis, Minn.) was used to determine the amount of VEGF in the culture supernatants. The ELISA was carried out according to the manufacturer's procedure.

[8] = system: Vascular Endothelial Growth Factor (VEGF) production by human prostate cancer cell line PC-3; assay: VEGF ELISA, PC-3; format: cell-based; details: for VEGF (% of DMSO): DMSO = 100%
[9] = system: Tissue Factor (TF) production by human prostate cancer cell line DU-145; assay: TF ELISA, DU-145; format: cell-based; details: 20 μM; for TF (% of DMSO): DMSO = 100%; for TF: mean of triplicate and S.D., DMSO 7699 ± 406
Method: as §1

[10] = system: HUVECS; assay: Emory Laboratory Cell Screen, Neutral Red, HUVECS; format: cell-based, human; details: 72 hours, read-out: Median Growth Inhibitory Concentration (GI50)
Method: as §2

[11] = system: MDA-MB-231; assay: Emory Laboratory Cell Screen, Neutral Red, MDA-MB-231; format: cell-based, human; details: MDA-MB-231, Breast Cancer, 72 hours, read-out: Median Growth Inhibitory Concentration (GI50)
Method: as §2

[12] = system: MDA-MB-435; assay: Emory Laboratory Cell Screen, Neutral Red, MDA-MB-435; format: cell-based, human; details: MDA-MB-435, Breast Cancer, 72 hours, read-out: Median Growth Inhibitory Concentration (GI50)
Method: as §2

[13] = system: Tissue Factor (TF) production by human breast cancer cell line MDA-MB-231; assay: TF ELISA, MDA-MB-231; format: cell-based; details: 0.5 μM
Method: as §3

[14] = Table 5, 5 μM, DMSO control 7054
[15] = 20 μM, mean of triplicate and S.D., DMSO 18760 ± 2633
[16] = Table 4, 20 μM, mean of triplicate and S.D.
[17] = 5 μM, DMSO control 4197 (EF-25: 1045)
[18] = 20 μM, mean of triplicate and S.D., DMSO 2103 ± 100
[19] = RPMI-7951, 72 h, read-out: Neutral Red Uptake, %
[20] = RPMI-7951, read-out: Cell Viability

In the case of `COc1cc(C=C2CCCC(=Cc3ccc(O)c(OC)c3)C2=O)ccc1O` [MD10], the “TF (% of DMSO)” value [1] is reported as “(0%)”, the TF [1] is reported as 0 ± 0 pg/mL and the GI50 [2] is reported as 2.2 µM. For the same compound, the “Neutral Red Uptake, %” value ([3]; 5 μM) was 82 % of control, the “Cell Viability” value ([3]; 5 μM) was 91% and the “Neutral Red Uptake, %” value ([3]; 20 μM) was 6 % of control. The “Cell Viability” value ([3]; 20 μM) was 42%, the TF ([4]; 1 μM, DMSO = 100) was 113% and the TF ([4]; 1 μM, DMSO control 7054) was 7966 pg/mL. For the same compound, the TF ([4]; 5 μM, DMSO = 100) was 25%, the “TF ELISA” value ([4]; 5 μM, DMSO control 7054) was 1793 pg/ml/well and the TF [4, 14] was 1793 pg/mL. The GI50 [5] was 8.1 µM, the “VEGF (% of DMSO)” value ([6]; 20 μM) was “(42%)” and the VEGF [6, 15] was 7830 ± 2262 pg/mL. The VEGF ([6]; Table 4, 20 μM, DMSO = 100) was 42%, the VEGF [6, 16] was 7830 ± 2262 pg/mL and the VEGF ([7]; 5 μM, DMSO = 100) was 44%. For the same compound, the “VEGF ELISA” value ([7]; 5 μM) was 1585 pg/ml/well, the VEGF [7, 17] was 1866 pg/mL and the VEGF ([7]; 20 μM, DMSO = 100) was 0%. For the same compound, the “VEGF ELISA” value ([7]; 20 μM) was 315 pg/ml/well, the VEGF ([7]; 20 μM, DMSO control 4197) was 0 pg/mL and the “VEGF (% of DMSO)” value ([8]; 20 μM) was “(29%)”. For the same compound, the VEGF [8, 18] was 611 ± 248 pg/mL, the VEGF ([8]; Table 4, 20 μM, DMSO = 100) was 29% and the VEGF [8, 16] was 611 ± 248 pg/mL. The “TF (% of DMSO)” value [9] was “(76%)”, the TF [9] was 5886 ± 332 pg/mL and the GI50 [10] was 14 µM.
With `O=C(C=Cc1cccc(O)c1)C=Cc1cccc(O)c1` [EF3, 1,5-Bis(3-hydroxyphenyl)penta-1,4-dien-3-one] the “TF (% of DMSO)” value [1] was “(69%)”, the TF [1] was 140 ± 8 pg/mL and the viability at 5 µM [3, 19] was 77%. It also gave a viability at 20 µM [3, 19] of 8%, a viability at 5 µM [3, 20] of 88% and a viability at 20 µM [3, 20] of 43%. For the same compound, the “VEGF (% of DMSO)” value ([6]; 20 μM) was “(138%)”, the VEGF [6, 15] was 25901 ± 620 pg/mL and the VEGF ([6]; Table 4, 20 μM, DMSO = 100) was 149%. It also gave a VEGF [6, 16] of 25901 ± 620 pg/mL, an activity at 5 µM [7] of 67% and an activity at 20 µM [7] of 0%. The “VEGF ELISA” value ([7]; 5 μM) was 2092 pg/ml/well, the VEGF [7, 17] was 2827 pg/mL and the “VEGF ELISA” value ([7]; 20 μM) was 230 pg/ml/well. For the same compound, the VEGF ([7]; 20 μM, DMSO control 4197) was 0 pg/mL, the “VEGF (% of DMSO)” value ([8]; 20 μM) was “(44%)” and the VEGF [8, 18] was 917 ± 261 pg/mL. For the same compound, the VEGF ([8]; Table 4, 20 μM, DMSO = 100) was 44%, the VEGF [8, 16] was 917 ± 261 pg/mL and the “TF (% of DMSO)” value [9] was “(87%)”. It also gave a TF [9] of 6687 ± 188 pg/mL.
With `COc1cc(C=C2CSCC(=Cc3ccc(O)c(OC)c3)C2=O)ccc1O` [MD283] the GI50 [11] was 1.8 µM, the GI50 [2] was 1.4 µM and the GI50 [5] was 2.1 µM. The GI50 [12] was 1.9 µM and the GI50 [10] was 3.1 µM.
With `O=C(C=Cc1ccccc1O)C=Cc1ccccc1O` [EF2, 1,5-Bis(2-hydroxyphenyl)penta-1,4-dien-3-one] the “TF (% of DMSO)” value [1] was “(36%)”, the TF [1] was 73 ± 10 pg/mL and the GI50 ([11]; Homo sapiens) was 1.5 µM. The GI50 ([2]; Homo sapiens) was 0.8 µM, the viability at 5 µM [3, 19] was 46% and the viability at 20 µM [3, 19] was 7%. It also gave a viability at 5 µM [3, 20] of 68%, a viability at 20 µM [3, 20] of 42% and a TF ([4]; 5 μM, DMSO = 100) of 82%. The “TF ELISA” value ([4]; 5 μM, DMSO control 7054) was 1009 pg/ml/well, the TF ([4]; 20 μM, DMSO = 100) was 14% and the TF [4, 14] was 5780 pg/mL. For the same compound, the TF ([4]; Table 5, 20 μM, DMSO control 7054) was 1009 pg/mL, the GI50 ([5]; Homo sapiens, Endothelial cell) was 1.8 µM and the “VEGF (% of DMSO)” value ([6]; 20 μM) was “(40%)”. The VEGF [6, 15] was 7516 ± 1915 pg/mL, the VEGF ([6]; Table 4, 20 μM, DMSO = 100) was 40% and the VEGF [6, 16] was 7516 ± 1915 pg/mL. The activity at 5 µM [7] was 36%, the activity at 20 µM [7] was 0% and the “VEGF ELISA” value ([7]; 5 μM) was 1295 pg/ml/well. The VEGF [7, 17] was 1522 pg/mL, the “VEGF ELISA” value ([7]; 20 μM) was 84 pg/ml/well and the VEGF ([7]; 20 μM, DMSO control 4197) was 0 pg/mL. The “VEGF (% of DMSO)” value ([8]; 20 μM) was “(1%)”, the VEGF [8, 18] was 26 ± 44 pg/mL and the VEGF ([8]; Table 4, 20 μM, DMSO = 100) was 1%. For the same compound, the VEGF [8, 16] was 26 ± 44 pg/mL, the GI50 ([12]; Homo sapiens) was 3.3 µM and the TF ([13]; DMSO = 100) was 82%. The TF ([13]; DMSO control 45753) was 37697 pg/mL, the “TF (% of DMSO)” value [9] was “(72%)” and the TF [9] was 5540 ± 364 pg/mL. For the same compound, the GI50 ([10]; Homo sapiens, HUVEC) was 1.7 µM.
